Experimental data taken from patent publication US10919935B2, “Antimicrobial peptide derived from myxinidin peptide and uses thereof” (INDUSTRY-ACADEMIC COOPERATION FOUNDATION, CHOSUN UNIVERSITY, priority 2015, dated 2021).
Residues, ends and D or L forms follow the SMILES beside them.

Key:
Assay type in all cases: cell-based
[1] = test system: Escherichia coli CCARM 1229
Description: (§1) To compare the antimicrobial activity of the peptide produced by the method of Example 1, the inventors of the present invention measured the growth minimum inhibitory concentration (MIC), which is minimum concentration of the peptide showing no dissociation of bacterial cells.
(§2) Specifically, the bacterial strain described in the following Table 2 was purchased and cultured in each medium to a mid-log phase. Then, after dilution to bacterial cell concentration of 2×10^5 cells/100 μl, the cells were inoculated to a microtiter plate (NUNC, USA). Thereafter, myxinidin 1, myxinidin 2, or myxinidin 3 peptides which have been synthesized in Example 1 above was diluted, 1/2 times for each, with BSA (bovine serum albumin) solution in a 96-well plate. After adding the cells to a plate, the cells were cultured for 12 hours at 37° C. By using a microtiter plate reader (Merck Elisa reader, Germany), the absorbance was measured at a wavelength of 600 nm to determine the MIC value of each bacterial strain. As a control group, myxinidin as a mother peptide was subjected to the same processes as above and the MIC value of each bacterial strain was obtained.

[2] = test system: Salmonella typhimurium CCARM 8013
Description: as §1, §2

[3] = test system: Salmonella typhimurium CCARM 8009
Description: as §1, §2

[4] = test system: Pseudomonas aeruginosa ATCC 27853
Description: as §1, §2

[5] = test system: Listeria monocytogenes KCTC 3710
Description: as §1, §2

[6] = test system: Pseudomonas aeruginosa Isolated strain 5018
Description: as §1, §2

[7] = test system: Escherichia coli ATCC 25922
Description: as §1, §2

[8] = test system: Staphylococcus aureus CCARM 3114
Description: as §1, §2

[9] = test system: Escherichia coli CCARM 1238
Description: as §1, §2

[10] = test system: Pseudomonas aeruginosa Isolated strain 3592
Description: as §1, §2

[11] = test system: Salmonella typhimurium KCTC 1926
Description: as §1, §2

[12] = test system: Staphylococcus aureus ATCC 25923
Description: as §1, §2

[13] = test system: Staphylococcus aureus CCARM 3709
Description: as §1, §2

[14] = in vitro; details: human, NHK cells (normal human keratinocytes)
Description: To determine the cytotoxicity of the peptide produced by the method of Example 1 in normal cell line, toxicity was measured by using NHK cells (Normal Human Keratinocyte cells).
Specifically, NHK cells which have been cultured in Epilife medium with 60 μM calcium (Gibco, USA) containing 10% HKGS (Human Keratinocyte Growth Supplement) (Gibco, USA) were aliquoted in a 96-well plate to have 1×10^4 cells per well. After culturing them for 24 hours, the cells were subjected to a treatment with myxinidin, myxinidin 1, myxinidin 2, or myxinidin 3 peptide, each at concentration of 3.125, 6.25, 12.5, or 25.0 μM/well, followed by reaction for 24 hours in a 5% CO2 incubator. After the culture, a reaction solution containing 5 mg/ml MTT (Thiazolyl Blue Tetrazolium Bromide) dissolved in physiological saline (PBS) was added in an amount of 20 μl to each well and allowed to react for 4 hours. After that, the supernatant was removed, and, by dissolving MTT crystals that are formed by adding 200 μl of DMSO, the absorbance at 560 nm was measured to determine the cell survival ability.

## CC[C@H](C)[C@H](NC(=O)CN)C(=O)N[C@@H](Cc1c[nH]cn1)C(=O)N[C@@H](CC(=O)O)C(=O)N[C@H](C(=O)N[C@@H](CC(C)C)C(=O)N[C@@H](CCCCN)C(=O)N[C@@H](Cc1ccc(O)cc1)C(=O)NCC(=O)N[C@@H](CCCCN)C(=O)N1CCC[C@H]1C(=O)N[C@@H](CO)C(N)=O)[C@@H](C)CC [Myxinidin, GIHDILKYGKPS-NH2] (H-GIHDILKYGKPS-NH2)
[1]
  Minimum growth inhibitory concentration: >32 µM
[2]
  Minimum growth inhibitory concentration: >32 µM
[3]
  Minimum growth inhibitory concentration: >32 µM
[4]
  Minimum growth inhibitory concentration: >32 µM
[5]
  Minimum growth inhibitory concentration: >32 µM
[6]
  Minimum growth inhibitory concentration: >32 µM
[7]
  Minimum growth inhibitory concentration: >32 µM
[8]
  Minimum growth inhibitory concentration: >32 µM
[9]
  Minimum growth inhibitory concentration: >32 µM
[10]
  Minimum growth inhibitory concentration: >32 µM
[11]
  Minimum growth inhibitory concentration: >32 µM
[12]
  Minimum growth inhibitory concentration: >32 µM
[13]
  Minimum growth inhibitory concentration: >32 µM
[14]
  viability at 24 h, 3.125 µM: 100%
  viability at 24 h, 6.25 µM: 98%
  viability at 24 h, 12.5 µM: 98%
  viability at 24 h, 25 µM: 95%
